This note sets out measurements from patent US20080027008A1, “Antitumorigenic Drug Combination” (priority 2006, published 2008).

The assay deals with Dogs with Lymphoma. The assay is described as follows: Efficacy Study for Treatment of Dogs with Lymphoma. It is filed as in vivo. Particulars: treatment received population of dogs. The protocol: Twenty-five (25) dogs of varying sex, weight, breed and age (5.5-14.0 yrs) were entered for the study. […] All dogs entered for study had received prior chemotherapy and enrolled to the study following disease relapse.
All dogs were treated with N-[2-[(4-HYDROXYPHENYL)AMINO]-3-PYRIDYL]-4-METHOXYBENZENESULFONAMIDE at an initial dose of 350 mg/m2 PO QD for 7 days then treated at 350 mg/m2 EOD×21 days. If no significant objective response or doselimiting toxicities were noted after 28 days on therapy, a QD regimen was restarted for 7 days. Otherwise, dogs continued on EOD dosing until study discontinuation.
All dogs were treated with ABT-510 at a dose of 1 mg/kg SQ divided BID starting 24 hours after the first dose of N-[2-[(4-HYDROXYPHENYL)AMINO]-3-PYRIDYL]-4-METHOXYBENZENESULFONAMIDE was administered.
Dogs treated with N-[2-[(4-HYDROXYPHENYL)AMINO]-3-PYRIDYL]-4-METHOXYBENZENESULFONAMIDE and ABT-510 therapy were evaluated at Day 0, Day 7, Day 28 then every 28 days thereafter. Assessment of tumor burden was made based on measurement of target lymph nodes (no more than 3 nodes/animal). The lymph node volume (I×w×h) was calculated for each target lymph node and assessed as a sum of total tumor burden. Standard response endpoints were evaluated based on the criteria below: • Complete response (CR) is defined as disappearance of all clinical evidence of cancer and of any signs related to the cancer. • Partial response (PR) is defined as a 50% or greater decrease in the sum of the products of measurements for representative lesions, without an increase in size of any lesions or appearance of any new lesions. • Minimal response (MR) is defined as a 25% or greater decrease in the sum of the products of measurements for representative lesions, without an increase in size of any lesions or appearance of any new lesions. • Stable disease is defined as no response or a response of less than that defined for partial response or progressive disease without appearance of any new lesions or worsening of clinical signs. • Progressive disease is defined as an unequivocal increase of at least 50% in the size of any measurable lesion or appearance of new lesions.
The Intent-to-Treat population included all 25 dogs enrolled in the study. Five (5) dogs withdrew from the study early due to their inability to receive N-[2-[(4-HYDROXYPHENYL)AMINO]-3-PYRIDYL]-4-METHOXYBENZENESULFONAMIDE and ABT-510 longer than 7 days. Four (4) of these dogs withdrew due to rapid lymphoma progression. One (1) dog withdrew due to owner decision related to side effects while receiving study agents.
The Treatment Received population included dogs who received N-[2-[(4-HYDROXYPHENYL)AMINO]-3-PYRIDYL]-4-METHOXYBENZENESULFONAMIDE and ABT-510 therapy for longer than 7 days. […]

The structures appear in SMILES notation.

Regarding `COc1ccc(S(=O)(=O)Nc2cccnc2Nc2ccc(O)cc2)cc1` [Single Agent, N-[2-[(4-HYDROXYPHENYL)AMINO]-3-PYRIDYL]-4-METHOXYBENZENESULFONAMIDE], for the setting “mean”, the “Response Duration, Mean” value is on record as “Mean = 65 days” and the “Time to Progression, Mean” value is “Mean = 21 days”. For the same compound, under “median”, the “Response Duration, Median” value is recorded as “Median = 24 days” and the “Time to Progression, Median” value was “Median = 18 days”.
